Measurements published in ChEMBL document CHEMBL6114951, “Discovery of 3-amide-pyrimidine-based derivatives as potential fms-like tyrosine receptor kinase 3 (FLT3) inhibitors for treating acute myelogenous leukemia” (Bioorg Med Chem Lett, 2025).
Blank lines part the entries; values can stand above or below the compound they belong to. Calls of active or inactive are those of the source. The rule behind the calls is not given here.

Key:
MV4-11 [1] = experiment: cells; conditions: Homo sapiens
Description: Antiproliferative activity against human MV4-11 cells by CCK-8 assay

A549 = experiment: cells; conditions: Homo sapiens
Description: Antiproliferative activity against human A549 cells by CCK-8 assay

HCT-116 = experiment: cells; conditions: Homo sapiens
Description: Antiproliferative activity against human HCT-116 cells by CCK-8 assay

MV4-11 [2] = experiment: Cell cycle arrest in human MV4-11 cells assessed as accumulation at G1-phase at 0.2 uM measured after 24 hrs by propidium iodide staining based flow cytometry (reference value: 70.31%); type: functional
MV4-11 [3] = experiment: Cell cycle arrest in human MV4-11 cells assessed as accumulation at G2-phase at 0.2 uM measured after 24 hrs by propidium iodide staining based flow cytometry (reference value: 8.87%); type: functional
MV4-11 [4] = experiment: Cell cycle arrest in human MV4-11 cells assessed as accumulation at S-phase at 0.2 uM measured after 24 hrs by propidium iodide staining based flow cytometry (reference value: 20.83%); type: functional
MV4-11 [5] = experiment: Induction of apoptosis in human MV4-11 cells assessed as viable cells at 0.2 uM measured after 24 hrs by Annexin V-FITC/propidium iodide staining based flow cytometry (reference value: 92.7%); type: functional; conditions: read-out: Activity
MV4-11 [6] = experiment: Induction of apoptosis in human MV4-11 cells assessed as early apoptotic cells at 0.2 uM measured after 24 hrs by Annexin V-FITC/propidium iodide staining based flow cytometry (reference value: 5.2%); type: functional
MV4-11 [7] = experiment: Induction of apoptosis in human MV4-11 cells assessed as late apoptotic cells at 0.2 uM measured after 24 hrs by Annexin V-FITC/propidium iodide staining based flow cytometry (reference value: 2%); type: functional
MV4-11 [8] = experiment: Induction of apoptosis in human MV4-11 cells assessed as necrotic cells at 0.2 uM measured after 24 hrs by Annexin V-FITC/propidium iodide staining based flow cytometry (reference value: 0.2%); type: functional
MV4-11 [9] = experiment: Induction of mitochondrial membrane potential loss in human MV4-11 cells assessed as cells with high MMP (aggregates) at 0.2 uM measured after 24 hrs by JC-1 staining based flow cytometry (reference value: 97%); type: functional
MV4-11 [10] = experiment: Induction of mitochondrial membrane potential loss in human MV4-11 cells assessed as cells with low MMP (monomers) at 0.2 uM measured after 24 hrs by JC-1 staining based flow cytometry (reference value: 2.9%); type: functional
[11] = Effect on total FLT3 expression in human MV4-11 cells at 0.2 uM measured after 24 hrs by Western blot analysis; type: toxicity, cell-based; conditions: mv4-11, 24 h
[12] = Effect on total STAT5 expression in human MV4-11 cells at 0.2 uM measured after 24 hrs by Western blot analysis; type: toxicity, cell-based; conditions: mv4-11, 24 h
[13] = Effect on total ERK expression in human MV4-11 cells at 0.2 uM measured after 24 hrs by Western blot analysis; type: toxicity, cell-based; conditions: mv4-11, 24 h
[14] = Effect on total AKT expression in human MV4-11 cells at 0.2 uM measured after 24 hrs by Western blot analysis; type: toxicity, cell-based; conditions: mv4-11, 24 h
[15] = target: Mast/stem cell growth factor receptor Kit (Homo sapiens, UniProt P10721)
in vitro = conditions: human, HEK293T cells
Description: Cytotoxicity against HEK293T cells by CCK-8 assay

MV4-11 [16] = experiment: Cell cycle arrest in human MV4-11 cells assessed as increase in accumulation at G0/G1-phase measured after 24 hrs by propidium iodide staining based flow cytometry; type: functional; conditions: dose 0.2-10 µM
c-Kit = c-Kit (Homo sapiens, UniProt P10721); experiment: Inhibition of c-Kit (unknown origin) at 100 uM relative to control; type: toxicity
MV4-11 [17] = experiment: Cell cycle arrest in human MV4-11 cells assessed as accumulation at G1-phase at 2 uM measured after 24 hrs by propidium iodide staining based flow cytometry (reference value: 70.31%); type: functional
MV4-11 [18] = experiment: Cell cycle arrest in human MV4-11 cells assessed as accumulation at G2-phase at 2 uM measured after 24 hrs by propidium iodide staining based flow cytometry (reference value: 8.87%); type: functional
MV4-11 [19] = experiment: Cell cycle arrest in human MV4-11 cells assessed as accumulation at S-phase at 2 uM measured after 24 hrs by propidium iodide staining based flow cytometry (reference value: 20.83%); type: functional
MV4-11 [20] = experiment: Cell cycle arrest in human MV4-11 cells assessed as accumulation at G1-phase at 10 uM measured after 24 hrs by propidium iodide staining based flow cytometry (reference value: 70.31%); type: functional
MV4-11 [21] = experiment: Cell cycle arrest in human MV4-11 cells assessed as accumulation at G2-phase at 10 uM measured after 24 hrs by propidium iodide staining based flow cytometry (reference value: 8.87%); type: functional
MV4-11 [22] = experiment: Cell cycle arrest in human MV4-11 cells assessed as accumulation at S-phase at 10 uM measured after 24 hrs by propidium iodide staining based flow cytometry (reference value: 20.83%); type: functional
MV4-11 [23] = experiment: Induction of morphological changes in human MV4-11 cells assessed as cell wrinkling; type: functional, cell-based
MV4-11 [24] = experiment: Induction of morphological changes in human MV4-11 cells assessed as cell fragmentation; type: functional, cell-based
MV4-11 [25] = experiment: Induction of apoptosis in human MV4-11 cells measured after 24 hrs by Annexin V-FITC/propidium iodide staining based flow cytometry; type: functional, cell-based; conditions: dose 0.2-5 µM
MV4-11 [26] = experiment: Induction of apoptosis in human MV4-11 cells assessed as viable cells at 2 uM measured after 24 hrs by Annexin V-FITC/propidium iodide staining based flow cytometry (reference value: 92.7%); type: functional; conditions: read-out: Activity
MV4-11 [27] = experiment: Induction of apoptosis in human MV4-11 cells assessed as viable cells at 5 uM measured after 24 hrs by Annexin V-FITC/propidium iodide staining based flow cytometry (reference value: 92.7%); type: functional; conditions: read-out: Activity
MV4-11 [28] = experiment: Induction of apoptosis in human MV4-11 cells assessed as early apoptotic cells at 2 uM measured after 24 hrs by Annexin V-FITC/propidium iodide staining based flow cytometry (reference value: 5.2%); type: functional
MV4-11 [29] = experiment: Induction of apoptosis in human MV4-11 cells assessed as late apoptotic cells at 2 uM measured after 24 hrs by Annexin V-FITC/propidium iodide staining based flow cytometry (reference value: 2%); type: functional
MV4-11 [30] = experiment: Induction of apoptosis in human MV4-11 cells assessed as necrotic cells at 2 uM measured after 24 hrs by Annexin V-FITC/propidium iodide staining based flow cytometry (reference value: 0.2%); type: functional
MV4-11 [31] = experiment: Induction of apoptosis in human MV4-11 cells assessed as early apoptotic cells at 5 uM measured after 24 hrs by Annexin V-FITC/propidium iodide staining based flow cytometry (reference value: 5.2%); type: functional
MV4-11 [32] = experiment: Induction of apoptosis in human MV4-11 cells assessed as late apoptotic cells at 5 uM measured after 24 hrs by Annexin V-FITC/propidium iodide staining based flow cytometry (reference value: 2%); type: functional
MV4-11 [33] = experiment: Induction of apoptosis in human MV4-11 cells assessed as necrotic cells at 5 uM measured after 24 hrs by Annexin V-FITC/propidium iodide staining based flow cytometry (reference value: 0.2%); type: functional
MV4-11 [34] = experiment: Induction of mitochondrial membrane potential loss in human MV4-11 cells measured after 24 hrs by JC-1 staining based flow cytometry; type: functional, cell-based; conditions: dose 0.2-10 µM
MV4-11 [35] = experiment: Induction of mitochondrial membrane potential loss in human MV4-11 cells assessed as cells with high MMP (aggregates) at 2 uM measured after 24 hrs by JC-1 staining based flow cytometry (reference value: 97%); type: functional
MV4-11 [36] = experiment: Induction of mitochondrial membrane potential loss in human MV4-11 cells assessed as cells with low MMP (monomers) at 2 uM measured after 24 hrs by JC-1 staining based flow cytometry (reference value: 2.9%); type: functional
MV4-11 [37] = experiment: Induction of mitochondrial membrane potential loss in human MV4-11 cells assessed as cells with high MMP (aggregates) at 10 uM measured after 24 hrs by JC-1 staining based flow cytometry (reference value: 97%); type: functional
MV4-11 [38] = experiment: Induction of mitochondrial membrane potential loss in human MV4-11 cells assessed as cells with low MMP (monomers) at 10 uM measured after 24 hrs by JC-1 staining based flow cytometry (reference value: 2.9%); type: functional

Chain of Mast/stem cell growth factor receptor Kit (P10721 whole entry): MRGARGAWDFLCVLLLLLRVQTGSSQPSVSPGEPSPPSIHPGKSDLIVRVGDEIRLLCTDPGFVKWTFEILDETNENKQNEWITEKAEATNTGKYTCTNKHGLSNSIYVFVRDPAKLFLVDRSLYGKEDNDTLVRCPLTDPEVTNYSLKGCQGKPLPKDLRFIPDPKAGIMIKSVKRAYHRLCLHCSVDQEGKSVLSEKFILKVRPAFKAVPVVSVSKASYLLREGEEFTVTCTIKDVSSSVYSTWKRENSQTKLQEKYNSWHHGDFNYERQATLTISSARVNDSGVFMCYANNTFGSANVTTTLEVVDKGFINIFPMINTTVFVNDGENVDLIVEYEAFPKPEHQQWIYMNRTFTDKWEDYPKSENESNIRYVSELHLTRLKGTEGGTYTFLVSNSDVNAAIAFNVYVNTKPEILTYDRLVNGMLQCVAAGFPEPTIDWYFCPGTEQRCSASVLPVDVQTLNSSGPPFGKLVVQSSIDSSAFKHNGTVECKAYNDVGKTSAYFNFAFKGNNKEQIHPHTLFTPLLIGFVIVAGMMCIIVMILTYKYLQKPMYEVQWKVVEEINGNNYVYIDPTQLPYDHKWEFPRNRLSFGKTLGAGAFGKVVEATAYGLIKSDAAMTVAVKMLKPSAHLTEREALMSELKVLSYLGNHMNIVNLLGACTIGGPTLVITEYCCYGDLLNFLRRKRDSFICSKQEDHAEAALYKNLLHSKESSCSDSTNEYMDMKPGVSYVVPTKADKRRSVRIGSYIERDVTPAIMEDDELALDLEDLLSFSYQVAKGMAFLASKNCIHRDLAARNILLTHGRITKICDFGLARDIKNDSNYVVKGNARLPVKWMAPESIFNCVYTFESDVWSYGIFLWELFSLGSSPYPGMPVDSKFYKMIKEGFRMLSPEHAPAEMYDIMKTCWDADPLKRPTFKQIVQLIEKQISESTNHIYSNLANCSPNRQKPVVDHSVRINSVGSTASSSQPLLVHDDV
Chain of c-Kit (P10721 whole entry): as above

Compound: Cc1nc(NC2CCN(C)CC2)nc(Nc2ccc(Oc3ccccc3)cc2)c1C(=O)O
IC50 (MV4-11 [1]): > 50 µM
IC50 (A549): > 50 µM
IC50 (HCT-116): > 50 µM

Compound: CN1CCC(N(C)c2ncc(C#N)c(Nc3ccc(Oc4ccccc4)cc3)n2)CC1
IC50 (MV4-11 [1]): 2.09 µM
IC50 (A549): 12.5 µM
IC50 (HCT-116): 5.99 µM

Compound: CN1CCC(N(C)c2ncc(C(N)=O)c(Nc3ccc(Oc4ccccc4)cc3)n2)CC1
IC50 (MV4-11 [1]): 0.66 µM
IC50 (A549): 7.67 µM
IC50 (HCT-116): 3.93 µM

Compound: N#Cc1cnc(N2CCCC2)nc1Nc1ccc(Oc2ccccc2)cc1
IC50 (MV4-11 [1]): 30.9 µM
IC50 (A549): > 50 µM
IC50 (HCT-116): > 50 µM

Compound: N#Cc1cnc(NC2CCCC2)nc1Nc1ccc(Oc2ccccc2)cc1
IC50 (MV4-11 [1]): 35.2 µM
IC50 (A549): > 50 µM
IC50 (HCT-116): > 50 µM

Compound: NC(=O)c1cnc(NC2CCCC2)nc1Nc1ccc(Oc2ccccc2)cc1
IC50 (MV4-11 [1]): 7.68 µM
IC50 (A549): 20 µM
IC50 (HCT-116): 23.3 µM

Compound: NC(=O)c1cnc(N2CCCC2)nc1Nc1ccc(Oc2ccccc2)cc1
IC50 (MV4-11 [1]): 35.8 µM
IC50 (A549): 10.6 µM
IC50 (HCT-116): > 50 µM

Compound: CN1CCC(Nc2ncc(C#N)c(Nc3ccc(Oc4ccccc4)cc3)n2)CC1
IC50 (MV4-11 [1]): 12.5 µM
IC50 (A549): > 50 µM
IC50 (HCT-116): 8.99 µM

Now from value to compound, other results behind:

IC50 (MV4-11 [1]): 5.36 µM
IC50 (A549): 7.86 µM
IC50 (HCT-116): 1.35 µM
Compound: CCOC(=O)c1c(C)nc(NC2CCN(C)CC2)nc1Nc1ccc(Oc2ccccc2)cc1

IC50 [15]: 0.0038 µM
IC50 (MV4-11 [1]): 0.003 µM
IC50 (A549): 0.14 µM
IC50 (HCT-116): 3.13 µM
IC50 (in vitro): 9.67 µM
Compound: CN1CCC(Nc2nc(Nc3ccc(Oc4ccccc4)cc3)c3c(=O)[nH]cc(Br)c3n2)CC1 [DENFIVONTINIB]
Activity (MV4-11 [2]): 89.36%
Activity (MV4-11 [3]): 4.11%
Activity (MV4-11 [4]): 6.52%
viability at 0.2 µM (MV4-11 [5]): 15.8%
Activity (MV4-11 [6]): 49.6%
Activity (MV4-11 [7]): 33.9%
Activity (MV4-11 [8]): 0.7%
Activity (MV4-11 [9]): 85.1%
Activity (MV4-11 [10]): 14.6%
Activity [11]: Non-toxic
Activity [12]: Non-toxic
Activity [13]: Non-toxic
Activity [14]: Non-toxic

IC50 (MV4-11 [1]): 2.09 µM
IC50 (A549): 2.88 µM
IC50 (HCT-116): 1.9 µM
Compound: CN1CCC(Nc2ncc(C(N)=O)c(Nc3ccc(Oc4ccccc4)cc3)n2)CC1

IC50 (MV4-11 [1]): 5.03 µM
IC50 (A549): 20 µM
IC50 (HCT-116): 23.4 µM
Compound: CCNC(=O)c1c(C)nc(NC2CCN(C)CC2)nc1Nc1ccc(Oc2ccccc2)cc1

IC50 (MV4-11 [1]): 5.13 µM
IC50 (A549): 4.05 µM
IC50 (HCT-116): 8.51 µM
Compound: CN1CCC(Nc2nc(Nc3ccc(Oc4ccccc4)cc3)c3ccccc3n2)CC1

IC50 (MV4-11 [1]): 7.19 µM
IC50 (A549): > 50 µM
IC50 (HCT-116): > 50 µM
Compound: CC(C)N1CCC(Nc2ncc(C#N)c(Nc3ccc(Oc4ccccc4)cc3)n2)CC1

IC50 (MV4-11 [1]): 6.96 µM
IC50 (A549): 9.87 µM
IC50 (HCT-116): 24.2 µM
Compound: CC(=O)N1CCC(Nc2nc(Nc3ccc(Oc4ccccc4)cc3)c3ccccc3n2)CC1

IC50 [15]: > 100 µM
IC50 (MV4-11 [1]): 0.59 µM
IC50 (A549): 7.73 µM
IC50 (HCT-116): 3.14 µM
IC50 (in vitro): 40.2 µM
Compound: CC(C)N1CCC(Nc2ncc(C(N)=O)c(Nc3ccc(Oc4ccccc4)cc3)n2)CC1
Activity (MV4-11 [16]): Dose-dependent-effect
inhibition at 100 µM (c-Kit): 17.5%
Activity (MV4-11 [2]): 75.47%
Activity (MV4-11 [3]): 4.45%
Activity (MV4-11 [4]): 20.08%
Activity (MV4-11 [17]): 82.96%
Activity (MV4-11 [18]): 5.41%
Activity (MV4-11 [19]): 11.9%
Activity (MV4-11 [20]): 89.91%
Activity (MV4-11 [21]): 5.7%
Activity (MV4-11 [22]): 4.39%
Activity (MV4-11 [23]): Active
Activity (MV4-11 [24]): Active
Activity (MV4-11 [25]): Dose-dependent-effect
viability at 0.2 µM (MV4-11 [5]): 78.5%
Activity (MV4-11 [6]): 15.1%
Activity (MV4-11 [7]): 6%
Activity (MV4-11 [8]): 0.3%
viability at 2 µM (MV4-11 [26]): 32.8%
viability at 5 µM (MV4-11 [27]): 11.7%
Activity (MV4-11 [28]): 50.5%
Activity (MV4-11 [29]): 16.4%
Activity (MV4-11 [30]): 0.3%
Activity (MV4-11 [31]): 51.7%
Activity (MV4-11 [32]): 35.8%
Activity (MV4-11 [33]): 0.8%
Activity (MV4-11 [34]): Dose-dependent-effect
Activity (MV4-11 [9]): 96.2%
Activity (MV4-11 [10]): 3.8%
Activity (MV4-11 [35]): 94.9%
Activity (MV4-11 [36]): 5%
Activity (MV4-11 [37]): 86.6%
Activity (MV4-11 [38]): 13.1%
